Drawing on patent publication US8592580B2, “Substituted triazinone derivatives” (Sanofi, priority 2008, dated 2013), this text covers melting point and IC50 for 2 compounds.

In data set [1] the target is GSK3β (Homo sapiens, UniProt P49841). Description: Inhibitory activity against GSK3β (33P-ATP phosphorylation of prephosphorylated GS1 peptide, four protocols). Type of data set: biochemical. The settings on record: protocol 3: 7.5 μM GS1 peptide, 10 μM ATP, 50 mM Hepes pH 7.2, one hour at room temperature. The protocol:
Inhibitory Activity of the Medicament of the Present Invention Against GSK3β Four different protocols can be used. In a first protocol: 7.5 μM of prephosphorylated GS1 peptide and 10 μM ATP (containing 300,000 cpm of ^33P-ATP) were incubated in 25 mM Tris-HCl, pH 7.5, 0.6 mM DTT, 6 mM MgCl2, 0.6 mM EGTA, 0.05 mg/ml BSA buffer for 1 hour at room temperature in the presence of GSK3beta (total reaction volume: 100 microliters). In a second protocol: 4.1 μM of prephosphorylated GS1 peptide and 42 μM ATP (containing 260,000 cpm ^33P-ATP) were incubated in 80 mM Mes-NaOH, pH 6.5, 1 mM Mg acetate, 0.5 mM EGTA, 5 mM 2-mercaptoethanol, 0.02% Tween 20, 10% glycerol buffer for 2 hours at room temperature in the presence of GSK3beta. In a third protocol: 7.5 μM of prephosphorylated GS1 peptide and 10 μM ATP (containing 300,000 cpm of ^33P-ATP) were incubated in 50 mM Hepes, pH 7.2, 1 mM DTT, 1 mM MgCl2, 1 mM EGTA, 0.01% Tween 20 buffer for one hour at room temperature in the presence of GSK3beta (total reaction volume: 100 microliters). […] Incorporated ^33P radioactivity was determined by liquid scintillation spectrometry. […]

Chain of GSK3β (P49841 whole entry): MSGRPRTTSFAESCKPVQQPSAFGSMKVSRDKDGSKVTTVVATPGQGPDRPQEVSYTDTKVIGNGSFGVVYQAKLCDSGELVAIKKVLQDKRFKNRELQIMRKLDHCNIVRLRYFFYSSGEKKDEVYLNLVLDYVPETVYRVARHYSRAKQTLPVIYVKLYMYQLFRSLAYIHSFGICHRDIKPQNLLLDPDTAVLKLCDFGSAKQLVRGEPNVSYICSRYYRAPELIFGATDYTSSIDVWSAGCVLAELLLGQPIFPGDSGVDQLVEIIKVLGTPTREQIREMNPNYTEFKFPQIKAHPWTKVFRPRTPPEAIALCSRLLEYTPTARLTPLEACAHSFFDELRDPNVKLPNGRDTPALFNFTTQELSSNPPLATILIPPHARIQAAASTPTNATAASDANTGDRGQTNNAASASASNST

The melting point is the temperature, or range, at which the solid turns liquid. As usually defined, the IC50 is the concentration that gives 50% inhibition. In turn, `Cn1c(NCC(O)c2ccccc2)nc(-c2ccncc2)nc1=O` (racemic) [Compound No. 1, (+/−)-6-(2-Hydroxy-2-phenyl-ethylamino)-1-methyl-4-pyridin-4-yl-1H-[1,3,5]triazin-2-one] returned a melting point of 242 to 244 °C. Moreover, it took 372 nM to reach half-maximal inhibition in data set [1] (IC50).

In the case of `O=c1nc(-c2ccncc2)nc(NCCc2ccccc2)[nH]1` [compound 5, 6-(2-Phenylethyl)amino-4-pyridin-4-yl-1H-[1,3,5]triazin-2-one], the melting point lay within 235 to 237 °C. Further, the IC50 in data set [1] was 50 nM.
